# Tests used:
# PC-3 cells [1] = test: Immunofluorescence of actin rearrangement and lamellipodial formation; assay type: cell-based, human
# Method: Immunofluorescence-PC-3 cells were plated on glass coverslips and serum starved for 2 hours prior to stimulation. Cells were stimulated with MCP-1 (100 ng/mL) for 30 min in the presence or absence of identified inhibitors. Stimulation with SDF-1 (200 ng/mL) for 30 min was used as a positive control. Cells were fixed in 3.7% paraformaldehyde, methanol-free for 10 min at room temperature then permeablized with 0.5% Triton X-100 for 5 min at room temperature. Cells were rinsed twice with PBS and incubated for 30 minutes at room temperature with 3% bovine serum albumin (BSA) in PBS+0.05% Tween 20 to prepare cells for staining. Cells were incubated with Phalloidin AlexaFluor S68 (Molecular Probes, Inc.) at a 1:40 dilution in BSA solution to label actin. Cells were washed and mounted on coverslips with Pro-Long Antifade containing DAPI (Molecular Probes, Inc.) following manufacturer's instructions. Immunofluoresence was visualized using a multi-photon laser scanning microscope (MPLSM), consisting of a Mai Tai Broadband Ti:Sapphire laser, tuneable between 710-990 nm and a modified Olympus Fluoview 300 confocal microscope with long working distance water immersion IR objectives. Images were captured with a 60× objective (zoom ×2), 800 nm excitation wavelength, 605 nm and 520 nm centered emmission filters.
# VCaP cells [2] = test: Fluorescence-based migration assay toward hrMCP-1; assay type: cell-based, human; conditions: for VCaP cell migration, mean fluoresence±SD: 24 hours
# Method: (§1) Flouresence-based Migration Assay—Cell migration was assessed using the Innocyte Cell Migration Assay (Calbiochem, Inc.) following the manufacturer's instructions. Briefly, increasing concentrations of MCP-1 (1-100 ng/mL) in the presence and absence of CCR2 inhibitors or neutralizing antibodies were added to the lower chamber of a 96 well plate. Cells were harvested by 0.5 μM EDTA release and resuspended at 2.5×10^5 cells/mL in serum free media. 2.5×10^4 cells were added to the upper chamber and allowed to migrate through the membrane with 8 μm pores for 24 hours at 37° C. and 5% CO2 atmosphere. Cells that migrated through the membrane were detached and labeled with Calcein AM and fluorescence was measured using fluorescent plate reader with excitation wavelength of 485 nm and emission wavelength of 520 nm. The experiments were repeated twice and each conditioned was performed in quadruplicate in each experiment.
# PC-3 cells [3] = test: Fluorescence-based migration assay toward hrMCP-1; assay type: cell-based, human; conditions: for PC-3 cell migration, mean fluoresence±SD: 24 hours
# Method: as §1
# PC-3Luc cells [4] = test: Bioluminescent in vivo model of metastasis (Example 4, antibodies and/or docetaxel); set-up: species or system male SCID mice
# Method: Bioluminescent imaging of PC-3Luc was preformed as previously described through The University of Michigan Small Animal Imaging Resource facility (MSAIR) (Loberg et al., 2006. Neoplasia. 8:578-586). Briefly, PC-3Luc cells were introduced into male SCID mice (5-6 wks of age) by intracardiac injections. Mice were serially imaged weekly for up to 12 weeks using a CCD IVIS system using a 50 mm lens (Xenogen Corp, Alameda, Calif.) and the results were analyzed using LIVING IMAGE software (Xenogen Corp.). Mice were separated into groups and treatment began at week 2 post-intracardiac injection and mice received 2 mg/Kg antibody twice weekly by intraperitoneal (i.p.) injection (for up to eight weeks) and/or 40 mg/Kg Taxotere i.p. injection once per week for three weeks. Mice were injected with luciferin (40 mg/mL) intraperitoneally and ventral images were acquired 15 min postinjection under 1.75% isofluorane/air anesthesia. Total tumor burden of each animal was calculated using regions of interest (ROIs) that encompassed the entire animal. Animals were sacrificed after week 6 image and individual organs were harvested and immediately placed in formalin.
# [5] = test system: HBME, HAEC and HDVMEC cells; test: CCL2 synthesis by endothelial cells stimulated with PTHrP; assay type: cell-based, human; conditions: PTHrP 10 nM
# Method: To determine the role of CCL2 in the development of prostate cancer-bone metastasis the level of CCL2 was analyzed by ELISA. […]
# [6] = test system: primary mouse calvaria osteoblasts; test: CCL2 ELISA of primary osteoblasts stimulated with PTHrP; assay type: cell-based; conditions: maximal response at 2 hours post-stimulation
# Method: Primary mouse calvarial cells were isolated as previously described. Briefly, calvaria of newborn mice at day 4 were dissected, isolated, and subjected to sequential digestions in collagenase A (2 mg/ml) and 0.25% trypsin for 20, 40, and 90 minutes. Cells from the third digest were washed, counted, and plated in αMEM with 10% FBS containing 100 U/ml of penicillin and streptomycin. Primary cultures were used without passage. For differentiation, both MC-4 and primary cells were induced to differentiate and form mineralized matrix with the addition of ascorbic acid (50 μg/ml) and β-glycerophosphate (10 mM) with media replacement (every 2 days). In proliferation phase, MC-4 cells were serum staved for 24 h before addition of PTHrP or vehicle for indicated time. Otherwise, cells were treated with PTHrP or vehicle for indicated time without serum starvation.
# A mouse CCL2 specific ELISA kit was purchased from BD Biosciences (San Diego, Calif.) to measure the protein level of CCL2 in cell culture media. Assays were performed as recommended by the manufacturer to determine levels of secreted CCL2 in MC-4 or primary cell culture media. Values were calculated from standard curves set up for each assay. The data are based on a triplicate experiments performed independently. Data are shown as mean +SEM in the figures.
# [7] = test system: MC3T3-E1 subclone 4 (MC-4) OB cells; test: CCL2 ELISA of osteoblast cells stimulated with PTHrP; assay type: cell-based, mouse; conditions: PTHrP 10 nM; day 7 and day 14 after induced differentiation
# Method: VCaP cells were obtained from a lumbar vertebral metastatic lesion through the Rapid Autopsy program at the University of Michigan (Korenchuk et al., 2001; 2: 163-168; Loberg et al., Urol. One. 2006; 24:161-168). Cells were cultured in Dulbecco's Modified Eagle Medium supplemented with 10% Fetal Bovine Serum and 1% antibiotic/antimicotic and incubated at 37° C. PC3 prostate cancer cells were obtained from the American Type Culture Collection (Manassas, Va.). Cells were cultured in RPMI-1640 with L-Glutamine (Cambrex Bioproducts) and supplemented with 10% Fetal Bovine Serum and 1% antibiotic/antimicotic. Cells were incubated at 37° C. and subcultured according to ATCC specifications. MC3T3-E1 subclone 4 cells (MC-4) with high osteoblast differentiation potential were maintained and passaged every 4-5 days as previously described. Briefly, cells were grown in AMEM (Gibco) containing 100 units/ml penicillin and streptomycin and 10% FBS. MC3T3 cells were plated at 40,000-50,000 cells/cm2, and differentiation was induced with the addition of ascorbic acid (50 μg/ml) for 7 days. The culture medium was changed at days 1, 3, 5, and 7. […]
# A mouse CCL2 specific ELISA kit was purchased from BD Biosciences (San Diego, Calif.) to measure the protein level of CCL2 in cell culture media. […] Values were calculated from standard curves set up for each assay. […]
# [8] = in vivo; cited from earlier work
# PC-3Luc cells [9] = test: WST-1 proliferation assay with hrCCL2 and anti-CCL2 antibodies; assay type: cell-based, human; conditions: 72 hours, antibodies 30 μg/mL
# Method: Cells were seeded at a density of 1×10^5 cells/ml for PC-3Luc cells in a 96 well plate in RPMI+10% FBS (FCS is mentioned in previous section). Twenty-four hours after seeding, media was changed to either serum-free RPMI or RPMI+10% FBS. Cell growth was determined 72 hours later using the WST-1 assay (Pierce Biotech, Inc.) following the manufacturer's instructions.
# VCaP cells [10] = test: WST-1 proliferation assay with MCP-1 with or without LY294002; assay type: cell-based, human; conditions: increasing concentrations, 24-96 hours
# Method: (§2) Proliferation Assay-Cells were seeded at a density of 4×10^3 cells/well in a six well plate in regular media. Twenty four hours after seeding the media was changed with serum free media with increasing concentrations of MCP-1(1-100 ng/mL) in the presence of absence of LY294002 (1 μM). Cell growth was determined at 24, 48, 72, and 96 hours after seeding using the WST-1 assay (Pierce Biotech) following the manufacturer's instructions.
# PC-3 cells [11] = test: as above; assay type: cell-based, human; conditions: increasing concentrations, 24-96 hours
# Method: as §2
# VCaP cells [12] = test: Western blot of MCP-1 induced signaling; assay type: cell-based, human; conditions: MCP-1 100 ng/mL, time dependent, maximal at 30 min; dose-dependent 0.1-100 ng/mL
# Method: (§3) Western Blot-Cells were lysed in RIPA buffer (50 mM Tris-HCl, pH 7.4, 1% NP-40, 150 mM NaCl, 1 mM EDTA, 1 mM PMSF, 1 mM Na3VO4, 1 mM NaF, 1 uM okadaic acid and 1 ug/mL aprotinin, leupeptin and pepstatin). Proteins were separated under reducing conditions by SDS-PAGE and transferred onto nitrocellulose membrane. The membranes were blocked with 5% milk in TBST (0.1% Tween in TBS) for 1 hour at room temperature. They were incubated overnight at 4° C. with primary antibodies. Membranes were washed 3 times prior to incubation with HRP-conjugated secondary antibodies (Cell Signaling, Beverly, Mass.) for 1 hour at room temperature. Protein expression was visualized by ECL chemiluminescent (Promega, Madison, Wis.) and quantitated using Image J software (NCl, Bethesda, Md.).
# PC-3 cells [13] = test: Western blot of MCP-1 induced signaling; assay type: cell-based, human; conditions: MCP-1 100 ng/mL
# Method: as §3
# LNCaP cells = test: WST-1 proliferation assay with MCP-1; assay type: cell-based, human; conditions: compared to vehicle treated controls
# Method: as §2
molecule,measurement,setting,value
O=C1Nc2ccccc2C2(CCN(CCc3ccc(C(F)(F)F)cc3)CC2)O1 [RS-102895],effect on MCP-1 induced actin rearrangement and lamellipodial formation,"PC-3 cells [1]; co-incubation with MCP-1 100 ng/mL, RS-102895 1 μM",did not prevent actin rearrangement and lamellipodial formation
same,effect on MCP-1 induced dose dependent migration of VCaP cells,VCaP cells [2]; MCP-1 1-100 ng/mL,attenuated
same,effect on MCP-1 induced dose dependent migration of PC-3 cells,PC-3 cells [3]; MCP-1 1-100 ng/mL,attenuated
"CC(=O)O[C@@]12CO[C@@H]1C[C@H](O)[C@@]1(C)C(=O)[C@H](O)C3=C(C)[C@@H](OC(=O)[C@H](O)[C@@H](NC(=O)OC(C)(C)C)c4ccccc4)C[C@@](O)([C@@H](OC(=O)c4ccccc4)[C@H]21)C3(C)C [docetaxel, (2R,3S)-N-carboxy-3-phenylisoserine, N-tert-butyl ester, 13-ester with 5b-20-epoxy-12a,4,7b,10b,13a-hexahydroxytax-11-en-9-one 4-acetate 2-benzoate, trihydrate]","animals of group counted at Wk 6 (tumor regression, Table 2)",PC-3Luc cells [4]; Wk 6 = First week after cessation of Taxotere,2 of 9
same,"animals of group counted at Wk 9 (tumor regression, Table 2)",PC-3Luc cells [4]; Wk 9 = First week after cessation of Antibodies,1 of 9
same,total tumor burden at Day 35,"PC-3Luc cells [4]; antibodies 2 mg/Kg i.p. twice weekly, docetaxel 40 mg/Kg i.p.",3.19 % of PBS-treated animals
same,"tumor burden during and after therapy (docetaxel, combination, antibody maintenance)","PC-3Luc cells [4]; docetaxel 40 mg/Kg i.p. qw for 3 weeks, antibodies 2 mg/Kg i.p. twice weekly until week 8",decrease in tumor burden while receiving therapy
PTHrP: Human Parathyroid hormone related protein (PTHrP)-(1-34) from Bachem,synthesis of CCL2,[5],increased their respective synthesis of CCL2
same,CCL2 expression,[6],increased CCL2 expression
same,CCL2 expression,[7],rapidly increased within 2 hours
VEGF TRAPR1R2: VEGF TRAP Fc fusion protein (Holash et al.),AUC,[8],36.28 µg·days/mL
same,Cmax,[8],16000 ng/mL
hrMCP-1: Human recombinant MCP-1 (CC chemokine ligand 2) from Chemicon International,"cell viability (WST-1) as a measure of proliferation, mean ±SD",PC-3Luc cells [9]; CCL2 10 ng/mL,136.2±7.81
same,"cell viability (WST-1) as a measure of proliferation, mean ±SD",PC-3Luc cells [9]; CCL2 100 ng/mL,168.15±5.44
same,proliferation in response to MCP-1,VCaP cells [10],enhanced proliferation
same,proliferation in response to MCP-1,PC-3 cells [11],enhanced proliferation
same,actin cytoskeleton: finger-like projections and lamellipodia,"PC-3 cells [1]; MCP-1 100 ng/mL, 30 min, compared to control cells",increased formation
same,Akt phosphorylation by immunoblot,VCaP cells [12],induced Akt phosphorylation
same,GSK3α/β phosphorylation,PC-3 cells [13],no effect
same,p70 S6 kinase phosphorylation,PC-3 cells [13],induced p70 S6 kinase phosphorylation
same,Akt phosphorylation by immunoblot,"PC-3 cells [13]; time dependent, maximal at 30 min, dose-dependent 0.1-100 ng/mL",induced Akt phosphorylation
same,"VCaP cell migration, mean fluoresence±SD",VCaP cells [2]; hrMCP-1 1 ng/mL,130.6±2.145
same,"VCaP cell migration, mean fluoresence±SD",VCaP cells [2]; hrMCP-1 10 ng/mL,176.1±9.051
same,"VCaP cell migration, mean fluoresence±SD",VCaP cells [2]; hrMCP-1 100 ng/mL,296.5±2.681
same,"PC-3 cell migration, mean fluoresence±SD",PC-3 cells [3]; hrMCP-1 1 ng/mL,83.53±2.981
same,"PC-3 cell migration, mean fluoresence±SD",PC-3 cells [3]; hrMCP-1 10 ng/mL,142.2±2.678
same,"PC-3 cell migration, mean fluoresence±SD",PC-3 cells [3]; hrMCP-1 100 ng/mL,248.1±0.761
same,proliferation in response to MCP-1,LNCaP cells,no effect

# — patent publication US20080118437A1, “Diagnosis and treatment O prostate cancer” (Regents of the University of Michigan, priority 2006, published 2008)
